The values that follow come from patent publication US9162977B2, “Synthetic ion channels” (The University of Hong Kong, priority 2006, dated 2015).

“Also recorded” adds a separate entry of the source.

Series [1] in a line: pH-stat fluorometric transport assay (HPTS-loaded liposomes). The format is biochemical. From the text:
This Example illustrates that the compound of Example 2 mediates chloride release when incorporated into liposomes. The liposome-based pH-stat fluorometric assay is an assay routinely used for identification of physiologically relevant ionophores, which are disclosed in (a) Deng, G., Dewa, T. and Regen, S. L. J. Am. Chem. Soc. 1996, 118, 8975; (b) Schlesinger, P. H., Ferdani, R., Liu, J., Pajewska, J., Pajewski, R., Saito, M., Shabany, H. and Gokel, G. W. J. Am. Chem. Soc. 2002, 124, 1848; (c) Sidorov, V., Kotch, F. W., Abdrakhmanova, G., Mizani, R., Fettinger, J. C. and Davis, J. T. J. Am. Chem. Soc. 2002, 124, 2267; (d) Sidorov, V., Kotch, F. W., Kuebler, J. L., Lam, Y.-F. and Davis, J. T. J. Am. Chem. Soc. 2003, 125, 2840; and (e) Baumeister, B., Sakai, N. and Matile, S. Angew. Chem., Int. Ed. 2000, 39, 1955, all of which are incorporated herein by reference. For example, in this assay, a controlled amount of the base and potential ionophore is added to a suspension of liposomes containing a pH-sensitive dye, 8-hydroxypyrene-1,3,6-trisulfonate (HPTS, pyranine). The resulting pH gradient across the bilayer membrane causes the efflux of hydronium ions or the influx of hydroxide ions and builds up an electrostatic potential. This potential can be compensated by the efflux of anions or influx of cations (H^+/M^+ or OH^−/A^− antiport and H^+/A^− or M^+/OH^− symport mechanisms are possible). If the compound of interest mediates such ion transport, the efflux of hydronium ions or the influx of hydroxide ions continues altering the […] pH and the fluorescence of the reporter dye.
Example 2-mediated chloride release was determined in large unilamellar vesicles (LUVs) of 100 nm average dimension, as reported in Sidorov, V., Kotch, F. W., Abdrakhmanova, G., Mizani, R., Fettinger, J. C. and Davis, J. T. J. Am. Chem. Soc. 2002, 124, 2267. […] Importantly, Example 2 mediated electrolyte exchange with high anion selectivity. It mediated electrolyte exchange in the presence of chloride but not in the presence of sulfate (see FIG. 6).

A short description of series [2]: Single-channel recording by patch-clamp on giant liposomes. In kind it is biochemical. The text has this: Single-channel recording, using patch clamp techniques, is the most critical test for identifying ion channel formation, which is distinguished from other ion transport mechanisms such as ion carriers, and quantifying ion transport efficiency of a membrane channel. The channel-forming activity of Example 2 incorporated in lipid bilayers is examined using patch-clamp technique on giant liposomes.
The two key properties of ion channels in nature are ion selectivity, that is, a channel permits only certain ionic species to flow through its pore, and gating referring to the mechanism of channel opening and closing.
On the technique in general: In patch-clamp work, channel activity is measured electrically.

The test system of series [3] is human embryonic kidney (HEK 293) cells. Description: Whole-cell patch-clamp recording of chloride currents. In kind it is cell-based. The procedure: The whole-cell configuration of the patch-clamp technique was used to examine the electrophysiological properties of the ionic currents induced by Example 2 in human embryonic kidney (HEK 293) cells. HEK 293 cell line originally obtained from the American Type Culture Collection, were cultured in DMEM supplemented with 10% FBS and 100 IU/ml penicillin G and 0.1 mg/ml streptomycin. Cells were grown at 37° C. in a 5% CO2 humidified incubator. Whole-cell chloride currents were recorded by using an EPC 9 patch clamp amplifier (HEKA Elektronik, Lambrecht/Pfalz, Germany) in voltage-clamp mode, controlled by Pulse/PulseFit 8.7 software (HEKA). Patch pipettes (resistance, 3-5 MΩ) were filled with a solution internal pipette solution containing CsCl 140, MgCl2 1, HEPES 10, EGTA 5, Na2ATP 5 (in mmol/L, pH 7.2 with CsOH). The bath solution contained NaCl 140, CsCl 5, CaCl2 1, MgCl2 1, HEPES 10 (in mmol/L, pH 7.4 with CsOH). After gigaohm seals were obtained, the membrane was ruptured with a pulsed negative pressure. Pipette and membrane capacitance were automatically compensated. Series resistance was typically compensated by 70%. […] All macroscopic currents were sampled at 50 kHz and filtered at 5 kHz, and data were analyzed with PulseFit (HEKA). Changes of Cl current were detected from the same cells before and after exposure to the bath solution containing Example 2 at the concentration of 50 nM. […]

For `CC(C)CNC(=O)[C@H](CC(C)C)NC(=O)c1cccc(C(=O)N[C@@H](CC(C)C)C(=O)NCC(C)C)c1` [Example 8], the melting point (commonly the temperature of the solid-liquid transition) is 240 to 242 °C.

In turn, `CC(C)CNC(=O)[C@H](CC(C)C)OC(=O)c1cccc(C(=O)O[C@@H](CC(C)C)C(=O)NCC(C)C)c1` [Example 9] showed a melting point of 137 to 139 °C.

As for `CC(C)CNC(=O)[C@@H](CC(C)C)ONC(=O)c1cccc(C(=O)NO[C@H](CC(C)C)C(=O)NCC(C)C)n1` [Example 7], the melting point lay in the range of 175 to 177 °C.

Take `CC(C)CNC(=O)[C@@H](CC(C)C)ONC(=O)c1cccc(C(=O)NO[C@H](CC(C)C)C(=O)NCC(C)C)c1` [Example 2]: the melting point lay within 176 to 178 °C. For the same compound, the “exchange between extra- and intravesicular electrolytes (chloride release)” value in series [1] (LUVs of 100 nm, NaCl extra- and intravesicular buffers, FIG. 5) is reported as “rapid, concentration-dependent exchange”. Besides, the “transport activity in LUVs loaded with sulfate” value in series [1] (LUVs symmetrically loaded with Na2SO4, FIG. 6) was “no transport activity was detected”. In addition, in series [1] (LUVs, NaCl extra- and intravesicular buffers, FIG. 7 and FIG. 12), the “chloride transport across lipid bilayers of chloride-containing liposomes” value is listed as “mediates chloride transport across the bilayer”. For the same compound, in series [2] (NMDG-Cl in the bath solution replaced by KCl), the “change in conductance or reversal potential” value is “no measurable change”. For the same compound, in series [2] (giant liposomes, patch clamp), the “ion selectivity of the channels formed” value was “chloride selectivity; also recorded: anion selective”. Further, the “gating of the channels formed” value in series [2] (giant liposomes, patch clamp, FIG. 8) was “voltage dependent gating; also recorded: voltage-gated”. Besides, the primary single-channel conductance in series [2] (symmetric 0.2 M N-methyl-glucamine hydrochloride (NMDG-Cl) solutions, compound in bath solution, FIG. 8) worked out at 54 pS. Also, the “channel open probability (Po) and frequency” value in series [2] (upon increasing voltages of lipid bilayers within a physiologically relevant range, FIG. 8) was “enhanced steeply”. Further, in series [3] (50 nM in bath solution, room temperature, FIG. 9), the “whole cell (chloride) currents” value is recorded as “dramatically increases cell chloride currents; also recorded: large increase”. The “induced whole cell currents in the presence of an anion transport inhibitor” value in series [3] (in the presence of DIDS) was “not reduced”.

`CC(C)C[C@@H](ONC(=O)c1cccc(C(=O)NO[C@H](CC(C)C)C(=O)OC(C)(C)C)c1)C(=O)OC(C)(C)C` [Example 1]: the melting point is 57 to 59 °C.

`CC(C)CNC(=O)[C@@H](CC(C)C)ONC(=O)c1ccccc1` [Example 6] had a melting point of 130 to 132 °C.

With `CCCCCCCCCCCCCCCCCCNC(=O)[C@@H](CC(C)C)ONC(=O)c1cccc(C(=O)NO[C@H](CC(C)C)C(=O)NCCCCCCCCCCCCCCCCCC)c1` [Example 5], the melting point lay in the range of 88 to 90 °C.
